# Experimental data: patent US9725484B2, “Methods and compositions for the treatment of bone remodeling disorders” (THE REGENTS OF THE UNIVERSITY OF MICHIGAN, priority 2013, dated 2017)
# Starred links: 1 amine or outer side, 2 acyl side, 3 side chain; linkers in the order of their positions; H or OH if unused. Positions of bridges follow the written chain, without caps; N, C: chain ends. Non-standard residues stand in square brackets, D forms with d. Residues, ends and D or L forms follow the SMILES beside them. No end group written: not given here. CO = O=C([*:1])[*:2]; Nlys = NCCCCNCC(=O)O
# T1: recombinant CRT (Mus musculus, UniProt P14211)
# T1 construct: made in house
# T1 sequence (P14211 18-416): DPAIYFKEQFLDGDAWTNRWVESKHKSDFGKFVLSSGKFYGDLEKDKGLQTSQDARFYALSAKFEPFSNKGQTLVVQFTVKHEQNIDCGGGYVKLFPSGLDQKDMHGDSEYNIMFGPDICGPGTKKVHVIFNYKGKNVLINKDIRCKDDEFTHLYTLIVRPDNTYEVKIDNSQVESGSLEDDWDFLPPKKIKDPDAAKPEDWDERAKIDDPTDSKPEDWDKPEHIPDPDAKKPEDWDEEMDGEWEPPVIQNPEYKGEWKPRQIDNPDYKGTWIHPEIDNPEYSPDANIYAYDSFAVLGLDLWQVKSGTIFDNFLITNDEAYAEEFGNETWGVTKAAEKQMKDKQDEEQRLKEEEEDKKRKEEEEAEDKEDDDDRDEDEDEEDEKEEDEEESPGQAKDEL
# T2: recombinant mouse CRT (calreticulin) (mouse, UniProt P14211 18-416, limits assumed)
# T2 construct: also called recombinant CRT
# T2 sequence (looked up): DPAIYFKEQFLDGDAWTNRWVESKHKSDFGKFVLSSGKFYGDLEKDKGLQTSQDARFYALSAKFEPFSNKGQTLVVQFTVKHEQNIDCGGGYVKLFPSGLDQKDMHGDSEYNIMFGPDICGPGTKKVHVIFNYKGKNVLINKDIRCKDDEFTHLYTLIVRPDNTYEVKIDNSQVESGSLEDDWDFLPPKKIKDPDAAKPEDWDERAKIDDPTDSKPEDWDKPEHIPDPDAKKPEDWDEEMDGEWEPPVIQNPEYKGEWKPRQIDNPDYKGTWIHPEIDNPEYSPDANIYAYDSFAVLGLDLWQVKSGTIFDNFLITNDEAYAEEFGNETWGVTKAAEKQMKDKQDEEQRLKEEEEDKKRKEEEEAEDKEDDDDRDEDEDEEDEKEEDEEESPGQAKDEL
# B1: linear DKCLA (SEQ ID NO: 1) peptide (peptide)
# peptide: DKCLA
# notes: Synthetic linear 5mer; analyte in SPR
# What was measured:
# [1] = test system: osteoclastogenesis in mouse bone marrow cell cultures; assay: In vitro OC differentiation assay, mouse bone marrow cell cultures; assay type: cell-based; settings: FIG. 2E; for Inhibition of basal osteoclastogenesis: mouse bone marrow cell cultures; for Inhibition of SE-activated OC differentiation: mouse cells
# Experimental: (§1) Surface plasmon resonance (SPR) and signal transduction assays were performed as previously described (Holoshitz et al., 2012; supra; Ling et al., 2010. PLoS ONE 5: e11703; Ling et al., 2012 Arthritis Rheum.). In vitro assays for OC differentiation, using primary bone marrow cells (BMCs) isolated from femurs and tibias, or PBMCs isolated from healthy blood donors were performed as previously described (Holoshitz et al., 2012; supra).
# [2] = test system: SE-activated OC differentiation in human cells (PBMCs); assay: In vitro OC differentiation assay, human PBMCs; assay type: cell-based; settings: FIG. 2D
# Experimental: Isolation of human peripheral blood mononuclear cells (PBMCs) and culture of M1 fibroblasts were previously described (Holoshitz et al., 2012, J. Immunol.). DBA/1 mice, 6 to 10 weeks old, were purchased from the Jackson Laboratory (Bar Harbor, Me.). Mice were maintained and housed at the University of Michigan-Unit for Laboratory Animal Medicine facility, and all experiments were performed in accordance with protocols approved by University of Michigan Committee on Use and Care of Animals.
# as §1
# [3] = test system: SE-activated NO signaling; assay: Signal transduction assay: inhibition of SE-activated NO signaling; assay type: cell-based
# Experimental: as §1
# CIA [4] = settings: in vivo; cited from earlier work
# CIA [5] = assay: Collagen-induced arthritis (CIA) in DBA/1 mice; assay type: in vivo, mouse
# Experimental: DBA/1 mice (7-10 week old) were immunization as described (Holoshitz, 2012, J. Immunol.) with chicken CII in CFA. In brief, 50 μl of an emulsion containing 100 μg of CII in 25 μl of 0.05 M acetic acid and 25 μl of CFA was injected intradermally at the base of the tail. Mice were injected once per week intraperitoneally with either 1 or 10 pg (HS4-4)c Trp at in 50 μl of PBS. Arthritis severity was determined as previously described (Holoshitz, 2012, J. Immunol.), using a visual scoring system on a 4-point scale for each paw: 0=no arthritis, 1=swelling and redness confined to digits, 2=minor swelling and redness spreading from the digits to the distal paw, and 3=major swelling and redness extending proximally from the paw.
# Limbs were dissected and decalcified in 10% EDTA for 14 days at 4° C. After decalcification, the specimens were processed for paraffin embedding and serial sectioned. The histological sections were deparaffinized, rehydrated and stained with hematoxylin and eosin (H&E), or for tartrate-resistant acid phosphatase (TRAP) activity using a commercial kit (Kamiya Biomedical Company, Seattle, Wash.). To determine OC abundance, TRAP-positive multinucleated cells were counted. Data represent mean±SEM of the total number of OCs in front and rear paws+knees. Bone damage was evaluated by radiography and micro-computed tomography (micro-CT) as previously described (Holoshitz, 2012, J. Immunol.).
# recombinant CRT = molecular target: T1, recombinant CRT; assay: Surface plasmon resonance (SPR) binding assay: binding to CRT and competitive inhibition of SE ligand 65-79*0401 binding; settings: for Potency of competitive inhibition of SE ligand binding to CRT: result in words
# Text: Ficoll-Paque™, 4,5-Diaminofluorescein Diacetate (DAF-2 DA), 5-(and -6)-chloromethyl-2′,7′ dichlorodihydrofluorescein (CM-H2DCFDA), macrophage colony-stimulating factor (M-CSF), RANKL, denatured chicken collagen type II (CII), and complete Freund's Adjuvant (CFA) were purchased from previously listed sources. All other commercial reagents were purchased from Sigma (St Louis, Mo.). Linear peptides were synthesized and purified (>90%) as previously described (Ling et al., 2006 supra; Ling et al., 2007 Arthritis Res Ther 9: R5; Ling et al., 2007 The Journal of Immunology 179: 6359-6367; De Almeida et al., supra). Peptidomimetics were prepared by backbone cyclization (Kotake et al., 1999 J. Clin. Invest. 103: 1345-1352) of a 5mer peptide carrying the sequence DKCLA (SEQ ID NO: 1). Recombinant mouse CRT was purified as described (Ling and Holoshitz. 2007 The Journal of Immunology 179: 6359-6367).
# as §1
# osteoclastogenesis = assay: In vitro osteoclastogenesis / OC differentiation, cells not given; assay type: cell-based
# Experimental: as §1
# rodent cells = assay: Literature: in vitro inhibition in rodent cells (Fridman et al.); assay type: cell-based
# [6] = molecular target: T2, recombinant mouse CRT (calreticulin); assay: SPR, peptide as analyte, recombinant CRT immobilized
molecule,measurement,setting,value
"HS(3-3)c Trp: backbone cyclic DKCLA (cDKCLA) peptidomimetic; cyclization linker m is 3 and n is 3 (bridge (positions not given here); not fully specified (bridges); also: backbone cyclized, linker m=3, n=3, 'Trp' in name unexplained)",Inhibition of basal osteoclastogenesis,[1],sub-pM
same,Inhibition of SE-activated OC differentiation,[1],sub-pM
same,Inhibition of SE-activated OC differentiation,[2],sub-pM
same,IC50,[3],0.0018 nM
CN1CCN(c2cccc(Nc3nc4c(-c5ccc(S(C)(=O)=O)cc5)cccn4n3)c2)CC1 [CEP-33779],Dose range with therapeutic efficacy in CIA,CIA [4],mg/kg-range
C[C@H](NC(=O)CN1CCCCNC(=O)NCCCCN(C(=O)[C@@H](N)Cc2c[nH]c3ccccc23)CC(=O)N[C@@H](CC(=O)O)C(=O)N[C@@H](CCCCN)C(=O)N[C@@H](CS)C1=O)C(N)=O [HS(4-4)c Trp] (H-W[Nlys]DKC[Nlys]A-NH2; linker 2-6 via CO),Inhibition of basal osteoclastogenesis,[1],sub-pM
same,Inhibition of SE-activated OC differentiation,[1],sub-pM
same,Dose range achieving disease amelioration effects,"CIA [5]; mouse, in vivo",ng/kg-range
same,"In vivo potency relative to INCB028050, SB1518, CEP-33779","CIA [5]; mouse, in vivo","1,000,000 fold"
same,Arthritis incidence,CIA [5]; weekly ip,lower incidence
same,Arthritis severity,CIA [5]; weekly ip,significantly milder
same,"Bone destruction, micro-CT imaging of joints",CIA [5]; weekly ip,lesser extent of bone destruction
same,"OC abundance, synovial tissue histology (TRAP)",CIA [5]; weekly ip,lower OC abundance
same,Arthritis onset,"CIA [5]; weekly ip, low-picogram doses",delayed onset
same,Inhibition of SE-activated OC differentiation,[2],sub-pM
same,IC50,[3],0.0016 nM
same,SEAL potency relative to the linear DKCLA peptide,[3],"1,000,000 times"
same,Concentrations blocking the SE signaling effects,[3]; result in words,low-pM
same,Potency of competitive inhibition of SE ligand binding to CRT,recombinant CRT,low-pM
same,Concentrations with inhibitory effect on OC differentiation,osteoclastogenesis; result in words,sub-to-low-pM
C1=C/COCc2cc(ccc2OCCN2CCCC2)Nc2nccc(n2)-c2cccc(c2)COC/1 [SB1518],Dose range with therapeutic efficacy in CIA,CIA [4],mg/kg-range
"HS(6-2)c Trp: backbone cyclic DKCLA (cDKCLA) peptidomimetic; cyclization linker m is 6 and n is 2 (bridge (positions not given here); not fully specified (bridges); also: backbone cyclized, linker m=6, n=2, 'Trp' in name unexplained)",IC50,[3],770 nM
DKCLA [Linear DKCLA],IC50,[3],35000 nM
same,Block of NO induction by the SE ligand,[3]; result in words,completely blocked
same,Binding to CRT,"recombinant CRT; peptide in the analyte, CRT immobilized on the biosensor chip",bound to CRT
same,Potency of competitive inhibition of SE ligand binding to CRT,recombinant CRT,low-μM-range
"HS(4-6)c Trp: backbone cyclic DKCLA (cDKCLA) peptidomimetic; cyclization linker m is 4 and n is 6 (bridge (positions not given here); not fully specified (bridges); also: backbone cyclized, linker m=4, n=6, 'Trp' in name unexplained)",IC50,[3],560 nM
"HS(6-4)c Trp: backbone cyclic DKCLA (cDKCLA) peptidomimetic; cyclization linker m is 6 and n is 4 (bridge (positions not given here); not fully specified (bridges); also: backbone cyclized, linker m=6, n=4, 'Trp' in name unexplained)",IC50,[3],6.3 nM
"HS(3-4)c Trp (DKCLA; bridge (positions not given here); not fully specified (bridges); also: backbone cyclized, linker m=3, n=4, 'Trp' in name unexplained)",Arthritis incidence,CIA [5]; weekly ip,does not inhibit
same,Arthritis severity,CIA [5]; weekly ip,does not inhibit
same,IC50,[3],4300 nM
same,Inhibition of osteoclastogenesis,osteoclastogenesis; FIG. 2F,does not inhibit
CCS(=O)(=O)N1CC(CC#N)(n2cc(-c3ncnc4[nH]ccc34)cn2)C1 [INCB028050],Dose range with therapeutic efficacy in CIA,CIA [4],mg/kg-range
same,Potency lower than compound HS(4-4)c Trp,rodent cells,~1000 fold
B1,binding result,[6],binds
